Assays:
[1] = test system: migraine headaches; conditions: for effect of preventive on migraine frequency: Patient two, before the regimen, ELAVIL 75 mg orally at bedtime, prednisone brief rounds
[2] = test system: acute migraine; test: Patient case reports: acute (rescue/abortive) migraine therapy; type: in vivo, human; conditions: for success for acute migraine: historically, before the regimen
[3] = Patient three, history before the regimen

Compound: CC(C)(C#N)c1cc(Cn2cncn2)cc(C(C)(C)C#N)c1 [ARMIDEX]
- effect on migraines (adverse) ([1]; human, in vivo): more frequent, disabling, and less responsive

Compound: CN(C)CCC=C1c2ccccc2CCc2ccccc21 [ELAVIL]
- effect of preventive on migraine frequency [1]: did not reduce migraine frequency
- side effects of migraine preventive ([1]; human, in vivo): weight gain

Compound: CN[C@@H]1CCc2[nH]c3ccc(C(N)=O)cc3c2C1 [FROVA]
- success for acute migraine ([2]; Patient one): moderate success
- success as rescue drug ([2]; Patient one, while using the regimen): with success

Compound: CNS(=O)(=O)Cc1ccc2[nH]cc(CCN(C)C)c2c1 [IMITREX]
- course of response for acute migraine rescue [2, 3]: worked well initially, but became ineffective
- response for acute migraine rescue [2, 3]: poor response
- response of migraines to acute therapy ([2]; Patient two, 100 mg orally, prior to breast cancer diagnosis, two to three migraines per month): responded well
- response to rescue medication ([2]; Patient two, while using the regimen and ELAVIL): more responsive to a single dose

Compound: CC(C)C[C@H](CN)CC(=O)O [LYRICA]
- side effects of migraine preventive ([1]; human, in vivo): fluid retention and confusion

Compound: CN(C)CCc1c[nH]c2ccc(Cn3cncn3)cc12 [MAXALT]
- response for acute migraine rescue [2, 3]: poor response

Compound: CC1(C)O[C@@H]2[C@@H](CO[C@@]3(COS(N)(=O)=O)OC(C)(C)O[C@@H]23)O1 [TOPAMAX]
- migraine reduction and severity with preventive ([1]; Patient one): poor migraine reduction and severity
- effect of preventive on migraine frequency [1]: did not reduce migraine frequency
- side effects of migraine prevention ([1]; human, in vivo): cognitive dysfunction
- side effects of migraine preventive ([1]; human, in vivo): alopecia
- tolerance of migraine preventive ([1]; human, in vivo): poor tolerance

Compound: O=C(c1ccccc1)c1ccc2n1CCC2C(=O)O (stereo not shown) [TORADOL]
- response for acute migraine rescue [2, 3]: poor response
- response to abortive therapy ([2]; human, in vivo, po): good response

Compound: Clc1ccc2nsnc2c1NC1=NCCN1 [ZANAFLEX]
- side effects of migraine prevention ([1]; human, in vivo): cognitive dysfunction

Compound: CC(CN1c2ccccc2Sc2ccccc21)N(C)C (stereo not shown) [phenegran]
- success for acute migraine ([2]; Patient one): moderate success

Compound: C[C@]12C=CC(=O)C=C1CC[C@@H]1[C@@H]2C(=O)C[C@@]2(C)[C@H]1CC[C@]2(O)C(=O)CO [prednisone]
- effect of preventive on migraine frequency [1]: short-lived migraine reduction

Compound: botulinum toxin [BOTOX]
- migraine remission / frequency ([1]; human, in vivo): complete remission of migraines to once per month

Reference: US8652463B1, “Dietary supplement to reduce the occurrence of migraines and treat their symptoms” (priority 2011, dated 2014)
